Reference: PubChem BioAssay AID330 (DTP/NCI, 2004)
“And” between values parts separate entries of the source, which are not always exact repeats. Identical values can stand only once. Toxic doses and inconclusive results are not listed. The calls were made as follows: active = survival T/C of 150% or more; inactive = T/C below 125% in these data.

Tested on: P388 leukemia ip, CD2F1 mice, survival T/C
Assay: NCI In Vivo Anticancer Drug Screen. Data for tumor model P388 Leukemia (intraperitoneal) in CD2F1 (CDF1) mice
Conditions: endpoint: median survival time, higher = longer survival
In short: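 Mice carrying the transplanted tumor received test compound or vehicle. Survival was recorded in each group, and the value is the treated-group measurement divided by that of the vehicle-treated control group.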

[1] = dose: 25.0 mg/kg/injection, schedule: Q01DX009 (ip), vehicle: saline with Tween-80
[2] = dose: 25.0 mg/kg/injection, schedule: Q01DX009 (ip), vehicle: suspension in saline
[3] = dose: 50.0 mg/kg/injection, schedule: Q01DX009 (ip), vehicle: saline with Tween-80
[4] = dose: 50.0 mg/kg/injection, schedule: Q01DX009 (ip), vehicle: suspension in saline
[5] = dose: 100.0 mg/kg/injection, schedule: Q01DX009 (ip), vehicle: saline with Tween-80
[6] = dose: 100.0 mg/kg/injection, schedule: Q01DX009 (ip), vehicle: suspension in saline
[7] = dose: 200.0 mg/kg/injection, schedule: Q01DX009 (ip), vehicle: saline with Tween-80
[8] = dose: 60.0 mg/kg/injection, schedule: Q01DX005 (ip), vehicle: saline with Tween-80
[9] = dose: 120.0 mg/kg/injection, schedule: Q01DX005 (ip), vehicle: saline with Tween-80
[10] = dose: 240.0 mg/kg/injection, schedule: Q01DX005 (ip), vehicle: saline with Tween-80
[11] = dose: 50.0 mg/kg/injection, schedule: Q01DX005 (ip), vehicle: saline with Tween-80
[12] = dose: 100.0 mg/kg/injection, schedule: Q01DX005 (ip), vehicle: saline with Tween-80
[13] = dose: 50.0 mg/kg/injection, schedule: Q01DX005 (ip), vehicle: Klucel (hydroxypropylcellulose) (HPC)
[14] = dose: 100.0 mg/kg/injection, schedule: Q01DX005 (ip), vehicle: Klucel (hydroxypropylcellulose) (HPC)
[15] = dose: 200.0 mg/kg/injection, schedule: Q01DX005 (ip), vehicle: Klucel (hydroxypropylcellulose) (HPC)

Measured: T/C

COC1/C=C/OC2(C)Oc3c(C)c(O)c4c(O)c(c(/C=N/N5C(C)CN(Cc6ccc(NC(C)=O)cc6)CC5C)c(O)c4c3C2=O)NC(=O)C(C)=C/C=C/C(C)C(O)C(C)C(O)C(C)C(OC(C)=O)C1C (configuration not stated)
inactive: dose: 12.5 mg/kg/injection, schedule: Q01DX009 (ip), vehicle: suspension in saline 110 % of control | [1] 119 % of control | [2] 110 % of control | [3] 99 % of control | [4] 108 % of control | [5] 99 % of control and 103 % of control | [6] 99 % of control | [7] 110 % of control and 119 % of control

O=C(CCl)c1ccc2c(c1)N(C(=O)COc1ccccc1)c1ccccc1S2
inactive: dose: 50.0 mg/kg/injection, schedule: Q01DX001 (ip), vehicle: Klucel (hydroxypropylcellulose) (HPC) 89 % of control | dose: 100.0 mg/kg/injection, schedule: Q01DX001 (ip), vehicle: Klucel (hydroxypropylcellulose) (HPC) 91 % of control | dose: 200.0 mg/kg/injection, schedule: Q01DX001 (ip), vehicle: Klucel (hydroxypropylcellulose) (HPC) 96 % of control

Cc1[nH]c(=O)[nH]c(=O)c1C=O
inactive: [3] 103 % of control | [5] 106 % of control | [7] 99 % of control

CSC1(CC(=O)N(C)C)C(=O)N(C)c2ccccc21 (configuration not stated)
inactive: [1] 100 % of control | [3] 94 % of control | [5] 115 % of control

O=C1Cc2cccc3cccc1c23
inactive: [1] 90 % of control | [3] 104 % of control | [5] 96 % of control | [7] 111 % of control

Cc1ccc(NC(=O)C2C(=O)N(c3ccc(C)c(C)c3)C(=O)C2N=N)cc1C (configuration not stated)
inactive: dose: 100.0 mg/kg/injection, schedule: Q01DX001 (ip), vehicle: saline with Tween-80 100 % of control | dose: 200.0 mg/kg/injection, schedule: Q01DX001 (ip), vehicle: saline with Tween-80 101 % of control | dose: 400.0 mg/kg/injection, schedule: Q01DX001 (ip), vehicle: saline with Tween-80 91 % of control

O=c1[nH]c(Nc2ccccc2)c([N+](=O)[O-])c(=O)[nH]1
inactive: [8] 106 % of control | [9] 107 % of control | [10] 106 % of control

COc1ccc2c(c1)CC(C)[N+]([O-])=C2C(F)(F)F (configuration not stated)
inactive: [11] 99 % of control | [12] 102 % of control | dose: 200.0 mg/kg/injection, schedule: Q01DX005 (ip), vehicle: saline with Tween-80 104 % of control

O=C(O)c1cc(-c2ccc(Cl)cc2)nc2cc(Cl)ccc12
inactive: [11] 98 % of control | [12] 100 % of control

Cc1ccc2c(c1)-c1[nH]c3ccccc3c1CS2
inactive: dose: 100.0 mg/kg/injection, schedule: Q04DX003 (ip), vehicle: Klucel (hydroxypropylcellulose) (HPC) 104 % of control | dose: 200.0 mg/kg/injection, schedule: Q04DX003 (ip), vehicle: Klucel (hydroxypropylcellulose) (HPC) 115 % of control

C/C(=N\N=C/N(C)S(C)(=O)=O)c1ccccc1
inactive: [13] 104 % of control | [14] 104 % of control | [15] 99 % of control

N#CC(C#N)=C(O)/C(=C/c1ccc([N+](=O)[O-])cc1)NC(=O)c1ccccc1
inactive: dose: 60.0 mg/kg/injection, schedule: Q01DX005 (ip), vehicle: saline 95 % of control | dose: 120.0 mg/kg/injection, schedule: Q01DX005 (ip), vehicle: saline 100 % of control | dose: 240.0 mg/kg/injection, schedule: Q01DX005 (ip), vehicle: saline 95 % of control

CC(C)(C)NCc1cc(Nc2ccnc3cc(Cl)ccc23)cc(-c2ccc(Cl)cc2)c1O
inactive: dose: 15.0 mg/kg/injection, schedule: Q01DX005 (ip), vehicle: saline with Tween-80 100 % of control | dose: 30.0 mg/kg/injection, schedule: Q01DX005 (ip), vehicle: saline with Tween-80 100 % of control | [8] 95 % of control and 98 % of control | [9] 105 % of control | [10] 97 % of control

[O-][n+]1cnn2ccccc21
inactive: [8] 100 % of control | [9] 106 % of control | [10] 102 % of control

C1=C(c2ccccc2)SC(N2CCCCC2)S1 (configuration not stated)
inactive: dose: 12.5 mg/kg/injection, schedule: Q01DX009 (ip), vehicle: distilled water + Tween-80 99 % of control | dose: 25.0 mg/kg/injection, schedule: Q01DX009 (ip), vehicle: distilled water + Tween-80 99 % of control | dose: 50.0 mg/kg/injection, schedule: Q01DX009 (ip), vehicle: distilled water + Tween-80 96 % of control | dose: 100.0 mg/kg/injection, schedule: Q01DX009 (ip), vehicle: distilled water + Tween-80 104 % of control | dose: 200.0 mg/kg/injection, schedule: Q01DX009 (ip), vehicle: distilled water + Tween-80 112 % of control

CC1(C(=O)O)NCCc2cc(O)c(O)cc21 (configuration not stated)
inactive: [13] 104 % of control | [14] 104 % of control | [15] 103 % of control

C=C1C(=O)OC2C(OC=O)CCCC12 (configuration not stated)
inactive: dose: 60.0 mg/kg/injection, schedule: Q01DX005 (ip), vehicle: Klucel (hydroxypropylcellulose) (HPC) 100 % of control | dose: 120.0 mg/kg/injection, schedule: Q01DX005 (ip), vehicle: Klucel (hydroxypropylcellulose) (HPC) 103 % of control

CC1CN1P(=S)(N1CCCCC1)N1CC1C (configuration not stated)
inactive: [2] 100 % of control | [4] 96 % of control | [6] 102 % of control | dose: 200.0 mg/kg/injection, schedule: Q01DX009 (ip), vehicle: suspension in saline 105 % of control

CC1=Nc2nc(=N)nc3cccc(n23)N1
inactive: [8] 95 % of control | [9] 104 % of control

N#CN=[N+]([O-])c1ccccc1
inactive: dose: 6.25 mg/kg/injection, schedule: Q04DX003 (ip), vehicle: Klucel (hydroxypropylcellulose) (HPC) 100 % of control | dose: 12.5 mg/kg/injection, schedule: Q04DX003 (ip), vehicle: Klucel (hydroxypropylcellulose) (HPC) 105 % of control | dose: 25.0 mg/kg/injection, schedule: Q04DX003 (ip), vehicle: Klucel (hydroxypropylcellulose) (HPC) 106 % of control and 96 % of control
